According to publication PMC12156185, “Synthesis of Cyclic Hexapeptides via the Hydrazide Method and Evaluation of Their Antibacterial Activities” (Molecules, 2025):
In brackets after ≈: the same amount, converted by molar mass. Where a SMILES comes first, the peptide text is derived from it.

Experiments:
[1] = Head-to-tail amide via hydrazide-based intramolecular NCL: C-terminal peptide hydrazide + NaNO2 (10 eq, pH 3, -15 °C) to acyl azide, then MPAA (40 eq) thioester, pH 6.3-6.5 (Fig 2: 6.7-7), S-to-N acyl shift onto N-terminal Cys; TCEP work-up; settings: the molecule shown is the open-chain precursor; 18-membered ring; 0.2 M sodium phosphate, 6 M guanidine HCl (aq); 0.75 mM; 25.0 °C
[2] = system: Candida tropicalis (BNCC 340288); type: cell-based; settings: BNCC 340288, 24 h
Protocol: (§1) The antimicrobial and antifungal activities of 11 cyclic hexapeptides (Cy-f1 to Cy-f11) were evaluated by determining their minimum inhibitory concentrations (MICs) against a panel of pathogens (Figure 4). These pathogens included Gram-negative bacteria (Escherichia coli, Klebsiella pneumoniae, Pseudomonas aeruginosa), Gram-positive bacteria (Staphylococcus aureus, Bacillus subtilis, Staphylococcus aureus [MRSA], […]), and fungi (Candida tropicalis, Cryptococcus neoformans).
(§2) The antibacterial activity of peptide analogs was tested against different bacterial strains, all purified cyclotides underwent antibacterial testing against Gram-positive bacterium Staphylococcus aureus (BNCC 186335), Bacillus subtilis (BNCC 109047), and Staphylococcus aureus (MRSA, BNCC 330041), Gram-negative bacteria, including Acinetobacter baumannii (BNCC 337173), Pseudomonas aeruginosa (BNCC 125486), and […]. Fungi included Candida parapsilosis (BNCC 336515) and Candida tropicalis (BNCC 340288). All the above strains are from the Henan Provincial Engineering Research Center of Industrial Microorganisms (Henan, China). Escherichia coli (ATCC 25922) and Klebsiella pneumoniae (CMCC(B) 46117) were sourced from Guangzhou HuanKai Microbial Technology Co., Ltd. (Guangzhou, China). The peptides’ MIC was determined using the Clinical and Laboratory Standards Institute broth dilution procedure with slight modifications.
Candida tropicalis was cultured on Sabourad Dextrose Agar (SDA). A single colony was inoculated in YM broth medium and grown overnight at 37 °C while shaking. Peptides were diluted in SDB media by two-fold dilution, resulting in 100 µL of medium containing increasing concentrations. The overnight culture (turbidity at OD600 = 1) was 1000× diluted in SDB. Then 100 µL of this suspension was added to each well, resulting in a final 200 µL suspension containing 2–4 × 10^5 CFU/mL. The plate was incubated at 37 °C for 24 h.
(§3) Each test was performed at least three times. MIC (minimum inhibitory concentration) values were determined as the concentrations of peptides that caused >99% inhibition of bacterial growth.

[3] = system: Cryptococcus neoformans (BNCC 225501); type: cell-based; settings: BNCC 225501, 48 h
Protocol: as §1, §2, §3

[4] = system: Pseudomonas aeruginosa (BNCC 125486); type: cell-based
Protocol: as §1, §2
(§4) Colonies of these bacterial strains were grown in respective agar media, then inoculated in Mueller Hinton (MH) broth and incubated at 37 °C overnight. The peptide solutions were first diluted 1 in 100 (from the stock solution at 20 mM) and then further two-fold dilution in MH broth in a sterile 96-well plate was performed, resulting in 100 µL of broth containing increasing concentrations. Bacteria in their exponential growth phase were diluted in MH broth, and 100 µL of this suspension was added in each well. […] Then, these plates were incubated at 37 °C for 20–22 h.
as §3

[5] = system: Escherichia coli (ATCC 25922); type: cell-based
Protocol: as §1, §2, §4, §3

[6] = system: Staphylococcus aureus (BNCC 186335); type: cell-based
Protocol: as §1, §2, §4, §3

[7] = system: Acinetobacter baumannii (BNCC 337173); type: cell-based
Protocol: as §1, §2, §4, §3

[8] = system: Klebsiella pneumoniae (CMCC(B) 46117); type: cell-based
Protocol: as §1, §2, §4, §3

[9] = system: Staphylococcus aureus (MRSA, BNCC 330041); type: cell-based
Protocol: as §1, §2, §4, §3

[10] = system: Bacillus subtilis (BNCC 109047); type: cell-based
Protocol: as §1, §2, §4, §3

Row | SMILES | ring closure, product found (1=cyclised, 0=failed) [1] | MIC against C. tropicalis [2] [µM] | MIC against C. neoformans [3] [µM] | MIC against P. aeruginosa [4] [µM] | MIC against E. coli [5] [µM] | MIC against S. aureus [6] [µM] | further results
1 | CC[C@H](C)[C@H](NC(=O)[C@H](CCCCN)NC(=O)[C@H](CC(C)C)NC(=O)[C@H](CCCCN)NC(=O)[C@@H](N)CS)C(=O)N[C@@H](Cc1ccccc1)C(=O)NN [H-Cys-Lys-Leu-Lys-Ile-Phe-NHNH2] | 1 |  |  |  |  |  | 
2 | CC[C@H](C)[C@H](NC(=O)[C@@H](NC(=O)[C@@H]1CCCN1C(=O)[C@H](CCCCN)NC(=O)[C@H](CCCNC(=N)N)NC(=O)[C@@H](N)CS)[C@@H](C)CC)C(=O)NN [H-Cys-Arg-Lys-Pro-Ile-Ile-NHNH2] | 1 |  |  |  |  |  | 
3 | CC(C)C[C@@H]1NC(=O)[C@H](C(C)C)NC(=O)[C@@H]2CCCN2C(=O)[C@H](CCCCN)NC(=O)[C@H](CCCNC(=N)N)NC(=O)[C@H](CS)NC1=O [Cy-f7] (cyclo(CRKPVL)) |  | 32 (≈ 22.3 µg/mL) | 16 (≈ 11.2 µg/mL) | 128 (≈ 89.2 µg/mL) | 128 (≈ 89.2 µg/mL) | 32 (≈ 22.3 µg/mL) | 
4 | CC[C@H](C)[C@@H]1NC(=O)[C@H](CCCCN)NC(=O)[C@H](CC(C)C)NC(=O)[C@H](CCCCN)NC(=O)[C@H](CS)NC(=O)[C@H](Cc2ccccc2)NC1=O [Cy-f3] (cyclo(CKLKIF)) |  | 32 (≈ 23.5 µg/mL) | 8 (≈ 5.86 µg/mL) | 128 (≈ 93.8 µg/mL) | 64 (≈ 46.9 µg/mL) | 16 (≈ 11.7 µg/mL) | MIC against A. baumannii [7]: 128 µM (≈ 93.8 µg/mL); MIC against K. pneumoniae [8]: 64 µM (≈ 46.9 µg/mL); MIC against MRSA [9]: 32 µM (≈ 23.5 µg/mL); MIC against B. subtilis [10]: 32 µM (≈ 23.5 µg/mL)
5 | CC[C@H](C)[C@@H]1NC(=O)[C@H]([C@@H](C)CC)NC(=O)[C@@H]2CCCN2C(=O)[C@H](CCCCN)NC(=O)[C@H](CCCNC(=N)N)NC(=O)[C@H](CS)NC1=O [Cy-f5] (cyclo(CRKPII)) |  | 64 (≈ 45.5 µg/mL) | 32 (≈ 22.8 µg/mL) | 128 (≈ 91 µg/mL) | 128 (≈ 91 µg/mL) | 16 (≈ 11.4 µg/mL) | 
6 | CC(C)C[C@H](NC(=O)[C@@H](NC(=O)[C@@H]1CCCN1C(=O)[C@H](CCCCN)NC(=O)[C@H](CCCNC(=N)N)NC(=O)[C@@H](N)CS)C(C)C)C(=O)NN [H-Cys-Arg-Lys-Pro-Val-Leu-NHNH2] | 1 |  |  |  |  |  | 
7 | CC[C@H](C)[C@@H]1NC(=O)[C@H](C(C)C)NC(=O)[C@H](CCCNC(=N)N)NC(=O)[C@H](CS)NC(=O)[C@H](CCCNC(=N)N)NC(=O)[C@H]([C@@H](C)CC)NC1=O [Cy-f10] (cyclo(CRVIIR)) |  | 128 (≈ 94.8 µg/mL) | 16 (≈ 11.9 µg/mL) | 128 (≈ 94.8 µg/mL) |  | 8 (≈ 5.93 µg/mL) | 
8 | CC[C@H](C)[C@H](NC(=O)[C@H](CCCCN)NC(=O)[C@H](CC(C)C)NC(=O)[C@H](CCCNC(=N)N)NC(=O)[C@@H](N)CS)C(=O)N[C@@H](Cc1ccccc1)C(=O)NN [H-Cys-Arg-Leu-Lys-Ile-Phe-NHNH2] | 1 |  |  |  |  |  | 
9 | CC[C@H](C)[C@H](NC(=O)[C@H](CCCNC(=N)N)NC(=O)[C@@H](N)CS)C(=O)N[C@H](C(=O)N[C@H](C(=O)N[C@@H](CCCNC(=N)N)C(=O)NN)C(C)C)C(C)C [H-Cys-Arg-Ile-Val-Val-Arg-NHNH2] | 1 |  |  |  |  |  | 
10 | CC(C)C[C@H](NC(=O)[C@H](CCCCN)NC(=O)[C@@H](N)CS)C(=O)N[C@@H](CCCNC(=N)N)C(=O)N[C@@H](Cc1c[nH]c2ccccc12)C(=O)N[C@@H](Cc1ccccc1)C(=O)NN [H-Cys-Lys-Leu-Arg-Trp-Phe-NHNH2] | 1 |  |  |  |  |  | 
11 | CC[C@H](C)[C@@H]1NC(=O)[C@H](CS)NC(=O)[C@H](CC(C)C)NC(=O)[C@H]([C@@H](C)CC)NC(=O)[C@@H]2CCCN2C(=O)[C@H](CCCNC(=N)N)NC1=O [Cy-f9] (cyclo(CIRPIL)) |  | > 200 | > 200 | > 200 | > 200 | > 200 | MIC against A. baumannii [7]: > 200 µM; MIC against K. pneumoniae [8]: > 200 µM; MIC against MRSA [9]: > 200 µM; MIC against B. subtilis [10]: > 200 µM
12 | CC[C@H](C)[C@H](NC(=O)[C@@H](NC(=O)[C@H](CCCNC(=N)N)NC(=O)[C@@H](N)CS)C(C)C)C(=O)N[C@H](C(=O)N[C@@H](CCCNC(=N)N)C(=O)NN)[C@@H](C)CC [H-Cys-Arg-Val-Ile-Ile-Arg-NHNH2] | 1 |  |  |  |  |  | 
13 | CC[C@H](C)[C@H](NC(=O)[C@H](CCCCN)NC(=O)[C@H](CC(C)C)NC(=O)[C@H](CC(C)C)NC(=O)[C@@H](N)CS)C(=O)N[C@@H](Cc1ccccc1)C(=O)NN [H-Cys-Leu-Leu-Lys-Ile-Phe-NHNH2] | 1 |  |  |  |  |  | 
14 | CC[C@H](C)[C@H](NC(=O)[C@@H](N)CS)C(=O)N[C@@H](CCCNC(=N)N)C(=O)N1CCC[C@H]1C(=O)N[C@H](C(=O)N[C@@H](CC(C)C)C(=O)NN)[C@@H](C)CC [H-Cys-Ile-Arg-Pro-Ile-Leu-NHNH2] | 1 |  |  |  |  |  | 
15 | CC[C@H](C)[C@@H]1NC(=O)[C@H](CS)NC(=O)[C@H]([C@@H](C)CC)NC(=O)[C@H]([C@@H](C)CC)NC(=O)[C@@H]2CCCN2C(=O)[C@H](CCCNC(=N)N)NC1=O [Cy-f11] (cyclo(CIRPII)) |  | 64 (≈ 44.5 µg/mL) | 128 (≈ 89.1 µg/mL) | > 200 | > 200 | > 200 | MIC against A. baumannii [7]: > 200 µM; MIC against K. pneumoniae [8]: 64 µM (≈ 44.5 µg/mL); MIC against MRSA [9]: > 200 µM; MIC against B. subtilis [10]: 64 µM (≈ 44.5 µg/mL)
16 | CC[C@H](C)[C@H](NC(=O)[C@@H](NC(=O)[C@@H]1CCCN1C(=O)[C@H](CCCNC(=N)N)NC(=O)[C@@H](NC(=O)[C@@H](N)CS)[C@@H](C)CC)[C@@H](C)CC)C(=O)NN [H-Cys-Ile-Arg-Pro-Ile-Ile-NHNH2] | 1 |  |  |  |  |  | 
17 | CC[C@H](C)[C@H](NC(=O)[C@@H]1CCCN1C(=O)[C@H](CCCCN)NC(=O)[C@H](CCCNC(=N)N)NC(=O)[C@@H](N)CS)C(=O)N[C@H](C(=O)NN)C(C)C [H-Cys-Arg-Lys-Pro-Ile-Val-NHNH2] | 1 |  |  |  |  |  | 
18 | CC[C@H](C)[C@@H]1NC(=O)[C@H](CCCNC(=N)N)NC(=O)[C@H](CS)NC(=O)[C@H](CCCNC(=N)N)NC(=O)[C@H](C(C)C)NC(=O)[C@H](C(C)C)NC1=O [Cy-f8] (cyclo(CRIVVR)) |  | 16 (≈ 11.6 µg/mL) | 32 (≈ 23.3 µg/mL) |  | 16 (≈ 11.6 µg/mL) | 8 (≈ 5.82 µg/mL) | MIC against K. pneumoniae [8]: 32 µM (≈ 23.3 µg/mL); MIC against B. subtilis [10]: 8 µM (≈ 5.82 µg/mL)
